# Source: patent US4822791A, “Pharmaceutical compositions of-2,2-1,1-[bis-2,2'-(3,1-benzoxazin-4-one)9 ethylenes” (priority 1984, dated 1989)
# Like-named read-outs stand apart in the source and are kept apart here.
# What was measured:
# [1] = Acute toxicity LD50 in mice (Test Example 8); conditions: mouse, in vivo, one week, Probit method
# Method: ddy-Strain mice (male) and Wistar strain rats were used to obtain LD50 values.
# According to the ordinary procedure, suspension or solution of test sample was administered to the animals. From the number of the died animals until one week after the administration, LD50 values were obtained by Probit method.
# [2] = tested on: mast cell in abdominal cavity; experiment: Release of histamine by dextran (T-500), mast cell in abdominal cavity (Test Example 12); type: cell-based, rat
# Method: (§1) Collection of mast cells in abdominal cavity and thoracic cavity and sensitizing of cells were conducted in similar manners to those in Test Example 10, respectively.
# (§2) The sample solution was treated with 105 microgramms/ml phosphatidylserin PBS solution (0.5 ml) and incubated at 37° C. for 30 minutes, followed by addition of 25 mg/ml dextran (T-500) PBS solution (0.5 ml) and further incubation for 15 minutes.
# (§3) This is conducted in a manner similar to that in Test Example 10.
# [3] = tested on: passive cutaneous anaphylaxis (PCA); experiment: Anti-passive cutaneous anaphylaxis (PCA) activity in rats (Test Example 2); type: in vivo, Wistar strain rats; conditions: Rattus norvegicus, N 10; for inhibition in vivo at 10 mg/kg: 10 mg/kg PO; for inhibition in vivo at 50 mg/kg: 50 mg/kg PO; for inhibition in vivo at 100 mg/kg: 100 mg/kg PO
# Method: (§4) Wistar strain rats were sensitized with ovalbumin using aluminium hydroxide gel and Bordetella Pertussis vaccine as adjuvants. Dilutions of antiserum (16-fold and 32-fold) obtained by collecting blood samples 14 days later were administered subcutaneously in the dorsal skin of the rats of the same strain at the rate of 0.1 ml per spot, and the rats were grown for 48 hours. One hour after peroral administration of the sample solution, a mixture of antigen ovalbumin and Evans-blue dye was administered to the tail venous of the animal according to the ordinary procedure. Thirty minutes later, the animals were sacrificed by exsanguination, and the areas of blue spots (long diameter×short diameter) eliciting on the portion of the antiserum injection at the dorsal skin were measured to obtain the rate of inhibition based on the average value shown by the control animals.
# [4] = Acute toxicity LD50 in ICR mice (Test Example 11); conditions: mouse, in vivo, one week, Provit method
# Method: As test animals, ICR-strain mice (male) were used. According to the conventional procedure, suspension or solution of test sample was administered to the animals. From the number of the died animals until one week after the administration, LD50 values were obtained by Provit method.
# [5] = tested on: mast cell in abdominal cavity; experiment: Release of histamine by antigen DNP-Ascaris, mast cell in abdominal cavity (Test Example 12); type: cell-based, rat; conditions: 10^-3 M; stronger than DSCG
# Method: as §1
# (1) Preparation of DNP-Ascaris antiserum was conducted in manner similar to that in Test Example 6.
# This is conducted in amanner similar to that in Test Example 10.
# as §3
# [6] = tested on: Mast cell in thoracic cavity; experiment: Release of histamine by dextran (T-500), mast cell in thoracic cavity (Test Example 12); type: cell-based, rat
# Method: as §1, §2, §3
# [7] = tested on: passive cutaneous anaphylaxis (PCA); experiment: Anti-passive cutaneous anaphylaxis activity (PCA) in rats (Test Example 9); type: in vivo; conditions: Rattus norvegicus, po, 10 animals
# Method: as §4
# This test was conducted in a manner similar to that in Test Example 2, except that the dilutions of antiserum were 12- and 24-folds.
# hyaluronidase [8] = molecular target: T1, hyaluronidase (Bos taurus, UniProt Q2YDK3); experiment: Anti-hyaluronidase activity (modified Morgan-Elson method); type: biochemical; conditions: hyaluronidase 340NF unit/ml; activating agent Compound 48/80 or CaCl2; read-out: IC50
# T1 sequence (Q2YDK3 36-553): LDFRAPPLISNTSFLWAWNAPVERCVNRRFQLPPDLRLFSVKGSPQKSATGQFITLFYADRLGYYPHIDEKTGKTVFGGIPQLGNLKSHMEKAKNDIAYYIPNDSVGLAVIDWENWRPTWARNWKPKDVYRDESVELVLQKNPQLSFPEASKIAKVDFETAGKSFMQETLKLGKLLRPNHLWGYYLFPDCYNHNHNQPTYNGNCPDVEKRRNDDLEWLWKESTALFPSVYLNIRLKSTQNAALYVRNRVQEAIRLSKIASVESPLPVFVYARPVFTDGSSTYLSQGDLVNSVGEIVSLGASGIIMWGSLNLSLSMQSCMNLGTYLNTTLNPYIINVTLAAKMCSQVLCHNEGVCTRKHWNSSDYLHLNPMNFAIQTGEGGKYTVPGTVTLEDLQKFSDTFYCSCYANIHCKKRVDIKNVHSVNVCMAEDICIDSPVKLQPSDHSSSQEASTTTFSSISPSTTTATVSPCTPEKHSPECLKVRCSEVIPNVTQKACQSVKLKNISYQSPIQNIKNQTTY
# [9] = tested on: mast cell in abdominal cavity; experiment: Inhibition of histamine release from mast cell in abdominal cavity in rat (Test Example 6); type: cell-based
# Method: Examination was made on the activity of inhibition of histamine release from mast cell by antigen-antibody reaction.
# Swine ascaris extract solution was dinitrophenylated according to Aisen's method, dialysed, and lyophilized. The product was administered as antigen together with Bordetella Pertussis vaccine subcutaneously into the foot pad of rat. Eight days later, blood was taken to obtain antiserum. The PCA titer for this antiserum in rat was 32 to 64.
# Heparin-containing PBS was injected intraperitoneally to rat which was sacrificed by exsanguination, after which the abdomen was well massaged to collect the injected PBS, which was purified by washing several times by centrifugation. The number of the mast cells contained in the solution was determined and adjusted to the designed concentration. As to method of sensitizing the cell, the above cell suspension (6 ml, 2×10^6 cells/ml) was treated with anti-DNP-Ascaris rat serum (PCA titer 32) (6 ml) and the mixture was incubated in the presence of hepain at 37° C. for 2 hours.
# To the sensitized mast cell suspension the solution of the drug to be tested was added, and the mixture was preliminarily incubated at 37° C. for 12 minutes. After addition of the solution of antigen DNP-Ascaris (final concentration, 20 microgramms/ml), the mixture was further incubated for 20 minutes. After completion of the reaction, the solution was centrifuged (500 G, 10 min.) under a low temperature to obtain a supernatant solution. Histamine contained in the supernatant solution was subjected to fluorometry by crthophthalaldehyde method.
# hyaluronidase [10] = conditions: known from the literature; cited from earlier work
# [11] = iv, read-out: LD50 value (mg/kg body weight) Mouse i.v.
# [12] = po, read-out: LD50 value (mg/kg body weight) Mouse p.o.
# [13] = read-out: Average Inhibition Rate (%) Antiserum Dilution: × 16
# [14] = read-out: Average Inhibition Rate (%) Antiserum Dilution: × 32
# [15] = intravenous, read-out: LD50 Value (mg/kg of body weight) Intravenous administration
# [16] = read-out: Inhibition, Anti-serum Dilution: × 12
# [17] = read-out: Inhibition, Anti-serum Dilution: × 24
Compound,"LD50 at 168 h [1, 11]","LD50 at 168 h [1, 12]","inhibition in vivo at 10 mg/kg [3, 13]","inhibition in vivo at 10 mg/kg [3, 14]","inhibition in vivo at 50 mg/kg [3, 13]","inhibition in vivo at 50 mg/kg [3, 14]","inhibition in vivo at 100 mg/kg [3, 13]","inhibition in vivo at 100 mg/kg [3, 14]","LD50 at 168 h [4, 15]","inhibition in vivo at 10 mg/kg [7, 16]","inhibition in vivo at 10 mg/kg [7, 17]","inhibition in vivo at 50 mg/kg [7, 16]","inhibition in vivo at 50 mg/kg [7, 17]",IC50 (hyaluronidase [8]),further results
"CCOC(=O)c1ccccc1NC(=O)C(=Cc1ccccc1)C(=O)Nc1ccccc1C(=O)OCC [Compound 14, Diethyl 2,2'-[(1,3-dioxo-2-phenylmethylene-1,3-propanediyl)diimino]bisbenzoate]",299 mg/kg,> 10000 mg/kg,38.6%,38.7%,41.9%,72.2%,59.3%,85.1%,347 mg/kg,29.8%,31.3%,36.7%,40.5%,–,"histamine release inhibiting activity, dextran (T-500) (in words) ([2]; 10^-4 and 10^-3 M, almost the same as DSCG): histamine release inhibiting activities; activity at 1000 µM ([2]; Rattus norvegicus, Mast cell, 0.25 h, 10^-3 M, read-out: Effect on release of histamine by dextran (T-500), Mast cell in abdominal cavity (control 100)): 40.2%; activity at 100 µM ([2]; Rattus norvegicus, Mast cell, 0.25 h, 10^-4 M, read-out: Effect on release of histamine by dextran (T-500), Mast cell in abdominal cavity (control 100)): 94.5%; histamine release inhibiting activity, antigen DNP-Ascaris (in words) [5]: histamine release inhibiting activity; Effect on release of histamine by dextran (T-500), Mast cell in thoracic cavity (control 100) ([6]; 10^-4, 15 min): 55.6; activity at 1000 µM ([6]; Rattus norvegicus, Mast cell, 0.25 h, 10^-3 M, read-out: Effect on release of histamine by dextran (T-500), Mast cell in thoracic cavity (control 100)): 42.2%"
COc1cc(C=C(C(=O)Nc2ccccc2C(=O)O)C(=O)Nc2ccccc2C(=O)O)ccc1O [Compound 24],275 mg/kg,> 10000 mg/kg,–,–,–,–,–,–,–,–,–,–,–,20 µM,–
O=C(Nc1ccccc1C(=O)O)C(=Cc1ccc(Cl)cc1)C(=O)Nc1ccccc1C(=O)O [Compound 30],258 mg/kg,8380 mg/kg,18.8%,23.2%,23.4%,33.3%,36.5%,42.5%,–,–,–,–,–,10 µM,–
"O=c1oc(C(=Cc2ccccc2)c2nc3ccccc3c(=O)o2)nc2ccccc12 [Compound 52, 2,2'-phenylethenilidenebis(3,1-benzoxazine-4-one)]",–,–,20.6%,29.4%,37.9%,38.3%,45%,47.1%,319 mg/kg,–,–,–,–,–,"activity at 1000 µM ([9]; Rattus norvegicus, Mast cell, 20 min, 10^-3 M, DNP-Ascaris 20 microgramms/ml, read-out: Amount of histamine released from peritoneal mast cell (Control = 100)): 21%; activity at 100 µM ([9]; Rattus norvegicus, Mast cell, 20 min, 10^-4 M, DNP-Ascaris 20 microgramms/ml, read-out: Amount of histamine released from peritoneal mast cell (Control = 100)): 60%; activity at 10 µM ([9]; Rattus norvegicus, Mast cell, 20 min, 10^-5 M, DNP-Ascaris 20 microgramms/ml, read-out: Amount of histamine released from peritoneal mast cell (Control = 100)): 68%; activity at 1 µM ([9]; Rattus norvegicus, Mast cell, 20 min, 10^-6 M, DNP-Ascaris 20 microgramms/ml, read-out: Amount of histamine released from peritoneal mast cell (Control = 100)): 70%; inhibition of release of histamine from the mast cell (in words) ([9]; even at the low concentration of 10^-6 M): inhibiting release of histamine; LD50 at 168 h ([4]; po, peroral, read-out: LD50 Value (mg/kg of body weight) Peroral administration): > 10000 mg/kg"
"CC(C)(C)OC(=O)c1ccccc1NC(=O)C(=Cc1ccccc1)C(=O)Nc1ccccc1C(=O)OC(C)(C)C [Compound 54, di-tertiary butyl 2,2'-[(1,3-dioxo-2-phenylmethylene-1,3-propanediyl)diimino]bisbenzoate]",–,–,–,–,–,–,–,–,312 mg/kg,33%,34.3%,38.8%,42.6%,–,–
polymixin B,–,–,–,–,–,–,–,–,–,–,–,–,–,–,effect on hyaluronidase activity (in words) (hyaluronidase [10]): activate hyaluronidase
